In the experiment the test system is homocysteine (Hcy). In words: Homocysteine (Hcy) in plasma of alcohol drinking rats. The experiment is classed as in vivo, SD rats. Conditions: plasma 6 h after Erguotou 20 ml·Kg−1. How it is done:
Experiment 2 Effect of 5-methyltetrahydrofolate on homocysteine (Hcy) in plasma of alcohol drinking rats.
30 SPF-grade SD rats were chosen in half male and half female, and divided into 5 groups with 6 rats in each group, including normal group, model group, positive drug group (Weihe Liver Protectant), 5-methyltetrahydrofolate administration groups (4 mg·Kg−1 medium dose group, 8 mg·Kg−1 high dose group, respectively). After fasting for 12 h, the administration groups were given Weihe Liver Protectant at 50 mg·kg−1, 5-methyltetrahydrofolate (Jinkang Hexin product) at 4 mg·Kg−1, 5-methyltetrahydrofolate (Jinkang Hexin product) at 8 mg·Kg−1, respectively. […] 6 h after drinking, blood was collected from the eye socket, treated with 0.5% EDTA-Na for anticoagulation (10 ml/L), immediately cooled in an ice bath, and centrifuged at 4° C. (3500r/min) for 15 min within 30 min. Plasma was collected and stored at −20° C. The plasma Hcy concentration was determined with high pressure liquid chromatography-fluorescence detection method.

This passage reports Hcy results from patent US20220280507A1, “USES OF 5-METHYLTETRAHYDROFOLATE AND ITS COMPOSITION” (Lianyungang Jinkang Hexin Pharmaceutical Co., Ltd., priority 2019, published 2022).

On to `CN1c2c([nH]c(N)nc2=O)NCC1CNc1ccc(C(=O)N[C@@H](CCC(=O)O)C(=O)O)cc1` (stereo partly drawn) [5-methyltetrahydrofolate, N-[4-[[(2-amino-1,4,5,6,7,8-hexahydro-4-oxo-5-methyl-(6S), -(6R), and (6R,S)-pteridyl)methyl)amino)toluoyl-glutamic acid], for which the Hcy worked out at 3.13 ± 1.26 µmol/L (4 mg·Kg−1, n=6) and 2.32 ± 1.49 µmol/L (8 mg·Kg−1, n=6).
